Where “and” joins values, the source holds several entries; their conditions need not be identical. Equal values may be shown once. Read-outs that look alike come from different tables or passages of the source.
How the values were obtained:
[1] = target: T1, S. aureus topoisomerase IV (Staphylococcus aureus, UniProt P0C1S7); experiment: S. aureus topoisomerase IV gel-based assay; format: biochemical; details: quadruplicates
T1 construct: purchased Inspiralis Ltd., Norwich, UK

[2] = test system: S. aureus ATCC 700699 VISA; experiment: Time-dependent killing; format: cell-based; details: for Time-kill bacterial count: 10xMIC; for Colony numbers: time-kill raw counts, Samples 1-3
Protocol: Time-dependent killing experiments were performed as previously. S. aureus ATCC 700699 VISA cells were inoculated to MHBII agar plates and grown overnight at 37 °C. Next, 3 independent stationer-phase starter cultures were grown at 37 °C, 250 rpm overnight, in 3 × 1 mL MHBII broth. Next, 100-fold diluted cultures were prepared from each in 20 mL fresh MHBII medium and grown at 37 °C, 250 rpm until early exponential phase (OD600 = 0.3–0.4; i.e., 5 × 10^5 cells/mL). […] Cells were treated with antibiotics in Erlenmeyer flasks at 37 °C, 150 rpm for 48 hours. […] Next, 50 μL from each dilution were plated on MHBII agar plates, and plates were incubated overnight at 37 °C to calculate CFU per mL.

[3] = test system: S. aureus VISA ATCC 700699 GyrB / ParE mutants; experiment: MIC of spontaneous resistant mutants (single-step and second-step); format: cell-based; details: Staphylococcus aureus
Protocol: MICs were determined using a standard serial broth microdilution technique according to the CLSI guidelines. Briefly, bacterial strains were inoculated onto MHBII agar plates and were grown overnight at 37 °C. Next, 3 individual colonies from each strain were inoculated into 1 mL MHBII medium and propagated at 37 °C, 250 rpm overnight. In the cases of Enterococcus and Streptococcus sp., cells were plated to BHI agar plates, and BHI broth was used to determine MICs. […] Following dilutions, each well was seeded with 5×10^4 bacterial cells. All measurements were performed in 3 parallel replicates and to avoid possible edge effects in microwell plates, side rows (A and H) were filled with sterile medium. Following inoculations, plates were covered with lids and wrapped in polyethylene plastic bags to minimize evaporation but allow for O2 transfer. Plates were incubated at 37 °C under continuous shaking at 150 rpm for 18 hours. After incubation, OD600 of each well was measured using a BioTek Synergy 2 microplate reader.

[4] = test system: S. aureus ATCC 700699 (VISA); experiment: microbe, parasite or virus in culture; format: cell-based; details: Staphylococcus aureus, read-out: MIC in adapted strains
Protocol: Adaptive laboratory evolution experiments followed an established protocol for automated laboratory evolution and aimed to maximize the drug-resistance increment during a fixed time period. […] Experiments were conducted in 96-well plates, in MHBII medium, by utilizing a checkerboard layout to minimize and monitor cross-contamination. These 96-well deep-well plates (0.5 mL, polypropylene, V-bottom) were covered with sandwich covers (Enzyscreen BV) to ensure an optimal oxygen exchange rate and limit evaporation and were shaken at 150 rpm, 37 °C. […] Following cell transfer, each culture was allowed to grow for 48 hours. At each transfer, cell growth was monitored by measuring the OD600 in a BioTek Synergy 2 plate reader. […] Accordingly, only 1 of the 4 populations was retained for each independently evolving strain. This protocol was designed to avoid population extinction and to ensure that populations with the highest level of resistance are propagated further during adaptive evolution. […] Adaptation of populations was terminated after 20 transfers, i.e., 40 days. Following adaptation, cells from each final population were spread onto MHBII agar plates, and individual colonies were isolated. Next, one colony from each adapted line were subjected to capillary sequencing of gyrB and parE to assess their genotype.

[5] = cited from earlier work
Topoisomerase IV = details: high-throughput relaxation assay ref 37; cited from earlier work

T1 sequence (P0C1S7 whole entry): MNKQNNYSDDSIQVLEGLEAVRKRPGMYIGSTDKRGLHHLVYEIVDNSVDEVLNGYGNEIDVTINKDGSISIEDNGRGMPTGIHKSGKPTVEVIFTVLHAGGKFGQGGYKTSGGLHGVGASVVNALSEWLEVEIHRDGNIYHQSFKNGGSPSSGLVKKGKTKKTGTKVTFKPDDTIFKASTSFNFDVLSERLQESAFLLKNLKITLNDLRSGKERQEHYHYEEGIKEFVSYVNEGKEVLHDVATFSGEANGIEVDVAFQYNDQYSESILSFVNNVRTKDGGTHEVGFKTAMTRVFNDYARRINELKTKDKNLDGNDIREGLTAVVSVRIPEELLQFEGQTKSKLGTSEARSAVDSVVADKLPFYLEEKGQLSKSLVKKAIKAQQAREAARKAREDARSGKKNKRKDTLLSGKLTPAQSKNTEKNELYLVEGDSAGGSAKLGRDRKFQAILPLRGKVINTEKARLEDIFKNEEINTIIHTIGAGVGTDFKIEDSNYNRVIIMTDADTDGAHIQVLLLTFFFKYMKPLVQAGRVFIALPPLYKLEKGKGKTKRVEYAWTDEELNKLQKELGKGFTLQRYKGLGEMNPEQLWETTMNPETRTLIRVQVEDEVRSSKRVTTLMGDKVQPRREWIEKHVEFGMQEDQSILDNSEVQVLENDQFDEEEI
T1 sequence (P0C1U9 whole entry, further chain): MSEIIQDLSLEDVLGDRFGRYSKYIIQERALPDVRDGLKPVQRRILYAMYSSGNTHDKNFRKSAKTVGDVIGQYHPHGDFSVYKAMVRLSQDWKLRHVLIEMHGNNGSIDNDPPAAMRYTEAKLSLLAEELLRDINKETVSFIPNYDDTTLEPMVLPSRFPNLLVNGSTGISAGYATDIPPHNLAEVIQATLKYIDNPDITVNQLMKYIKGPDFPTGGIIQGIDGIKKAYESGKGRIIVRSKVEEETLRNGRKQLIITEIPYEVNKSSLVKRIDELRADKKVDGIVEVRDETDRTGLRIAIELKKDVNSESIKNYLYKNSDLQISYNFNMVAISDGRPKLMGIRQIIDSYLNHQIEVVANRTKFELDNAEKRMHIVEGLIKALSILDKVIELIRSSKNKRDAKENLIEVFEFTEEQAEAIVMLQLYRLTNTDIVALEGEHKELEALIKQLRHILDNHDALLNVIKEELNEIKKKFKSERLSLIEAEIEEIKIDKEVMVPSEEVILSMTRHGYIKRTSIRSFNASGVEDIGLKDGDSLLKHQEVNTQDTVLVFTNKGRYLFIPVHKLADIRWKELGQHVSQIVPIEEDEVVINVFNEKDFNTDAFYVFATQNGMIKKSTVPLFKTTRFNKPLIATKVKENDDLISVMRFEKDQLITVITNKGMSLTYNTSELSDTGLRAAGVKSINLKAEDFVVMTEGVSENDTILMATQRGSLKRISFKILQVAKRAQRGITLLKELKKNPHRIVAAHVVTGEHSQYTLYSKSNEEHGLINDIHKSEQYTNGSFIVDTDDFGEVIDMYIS

## CO[C@@H]1[C@@H](OC(N)=O)[C@@H](O)[C@H](Oc2ccc3c(O)c(NC(=O)c4ccc(O)c(CC=C(C)C)c4)c(=O)oc3c2C)OC1(C)C [Novobiocin]
[1]
  IC50: 2 µM
[2]; time 0 hour
  Time-kill bacterial count: 2.80E+05
[2]; time 3 hour
  Time-kill bacterial count: 9.90E+04
[2]; time 6 hour
  Time-kill bacterial count: 4.70E+04
[2]; time 12 hour
  Time-kill bacterial count: 5.80E+03
[2]; time 18 hour
  Time-kill bacterial count: 1.50E+03
[2]; time 24 hour
  Time-kill bacterial count: 8.00E+02
[2]; time 48 hour
  Time-kill bacterial count: 6.40E+02
[2]; time 0 h, Dilution 100
  Colony numbers: 145 and 132 and 137
[2]; time 3 h, Dilution 100
  Colony numbers: 63 and 38 and 48
[2]; time 6 h, Dilution 100
  Colony numbers: 21 and 29
[2]; time 12 h, Dilution 10
  Colony numbers: 33 and 23 and 31
[2]; time 18 h, Dilution 1
  Colony numbers: 81 and 65 and 84
[3]; VISA GyrB I175T
  MIC: 0.032 µg/mL
[3]; VISA GyrB R144G
  MIC: 4 µg/mL
[3]; VISA GyrB R144I
  MIC: 8 µg/mL
[3]; VISA wt, read-out: MIC
  MIC: 0.05 µg/mL
[4]
  MIC: 16 µg/mL

## O=c1ccc2ncc(=O)n3c2n1C[C@H]3CN1CCC(NCc2cc3c(cn2)OCCC3)CC1 [Gepotidacin]
[5]
  increment in resistance level by combination of 2 specific target mutations: 2,000 fold
  resistance level (MIC) of double target mutant: 256 µg/mL

## O=C(O)C(=O)Nc1ccc2nc(NC(=O)c3cc(Br)c(Br)[nH]3)sc2c1 [ULD0]
Topoisomerase IV
  IC50: 10 ± 2 µM

Source: article PMC7561186, “Rational design of balanced dual-targeting antibiotics with limited resistance” (PLoS Biology, 2020)
